From patent US9056111B1, “Selective efflux inhibitors and related pharmaceutical compositions and methods of treatment” (STC.UNM, priority 2011, dated 2015) come the findings set out here.

Values after ≈ are worked out from the molar mass of the structure shown. Read-outs that look alike come from different tables or passages of the source.

The target in one data set is T1, ABCG2 (Homo sapiens, UniProt Q9UNQ0).
T1 sequence (Q9UNQ0 1-655): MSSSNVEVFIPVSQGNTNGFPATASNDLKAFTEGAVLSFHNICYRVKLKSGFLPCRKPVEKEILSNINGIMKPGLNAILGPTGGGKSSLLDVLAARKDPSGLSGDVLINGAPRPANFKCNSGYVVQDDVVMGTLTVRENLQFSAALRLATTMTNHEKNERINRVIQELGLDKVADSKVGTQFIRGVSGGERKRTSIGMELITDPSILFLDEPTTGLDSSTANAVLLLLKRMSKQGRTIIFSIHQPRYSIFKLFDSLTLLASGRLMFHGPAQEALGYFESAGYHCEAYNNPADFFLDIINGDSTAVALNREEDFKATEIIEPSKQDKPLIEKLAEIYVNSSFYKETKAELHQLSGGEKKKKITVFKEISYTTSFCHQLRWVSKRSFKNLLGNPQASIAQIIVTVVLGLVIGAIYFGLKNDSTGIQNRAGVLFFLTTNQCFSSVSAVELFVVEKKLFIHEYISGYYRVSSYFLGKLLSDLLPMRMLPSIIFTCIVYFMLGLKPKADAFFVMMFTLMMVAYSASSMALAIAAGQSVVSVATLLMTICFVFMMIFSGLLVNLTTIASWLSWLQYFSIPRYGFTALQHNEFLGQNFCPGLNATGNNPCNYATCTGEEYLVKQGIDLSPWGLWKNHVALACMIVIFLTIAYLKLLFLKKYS
The data set is described as follows: JC-1 efflux inhibition dose response, flow cytometry, Ig-MXP3 cells. The method, boiled down: (§1)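 Ig-MXP3 (ABCG2) and Jurkat-DNR (ABCB1) cells, run separately, are pre-stained with 1 μM JC-1 and added to compound in PBS; retained dye is read by high-throughput flow cytometry with time-gated analysis.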
Background: A flow cytometer gives signals particle by particle.

Another data set deals with T2, ABCB1 / ABCG2 (Homo sapiens, UniProt Q9UNQ0).
T2 sequence (Q9UNQ0 1-655): T1 sequence (Q9UNQ0 1-655)
The data set is described as above. To be noted: human, probe JC-1 (1 µM), ~Fold G2 Selective (B1/G2), quotient of average ABCB1 IC50 and average ABCG2 IC50, efflux assay. An outline of the steps: as §1

Data set [1] can be described thus: Aqueous solubility in PBS. Type of data set: physicochemical. As to conditions: phosphate buffered saline (PBS), aqueous buffer; PBS pH 7.4, room temperature (23° C.). As to the method: PBS by definition is 137 mMNaCl, 2.7 mMKCl, 10 mM sodium phosphate dibasic, 2 mM potassium phosphate monobasic and a pH of 7.4.
Data set [2] can be described thus: Flow cytometric kinetic solubility. Type of data set: physicochemical. To be noted: kinetic from dmso stock. The source says: Applying a flow cytometrickinetic solubility protocol,^65 we were also able to compare solubility across primary, secondary, and profiling buffer conditions in house. […] This is approximately three fold higher than reported above; however, our protocol uses 1% DMSO as compared to 0.1%. […] The presence of fetal bovine serum also affects compound availability and in the primary assay screening buffer (6.7% FBS in PBS, 1% DSMO) the precipitation was inhibited slightly with no particulate noted at 3 μg/mL. […] In general, we are confident that compound availability is sufficient for the concentration ranges discussed for this scaffold set in our described biological systems.

Data set [3] can be described thus: Aqueous stability in PBS at room temperature. The format is physicochemical. As to the method: Aqueous stability was measured at room temperature (23° C.) in PBS (no antioxidants or other protectants and DMSO concentration below 0.1%). The stability of SID 88095709, determined as the percent of compound remaining after 48 hours, was 10%.^64Stability data are depicted as a graph showing the loss of compound with time over a 48 hour period with a minimum of 6 time points and provide the percent remaining compound at end of the 48 hours (FIG. 3, closed circles).
The stability data under these conditions overlain in the FIG. 3 and is also depicted as a graph showing the loss of compound with time over a 48 hour period with a minimum of 6 time points and provide the percent remaining compound at end of the 48 hours (FIG. 3, closed triangles). The addition of acetonitrile appears to have solubilized the compound and provided a more accurate reading of the stability, which is now 100% remaining after 48 hours.

The test system of data set [4] is ABCB1 over-expressing Jurkat-DNR cells. The experiment in a line: Chemoreversal assay: potentiation of daunorubicin (DNR) killing. The format is cell-based. As to conditions: constant 100 nM DNR, varied inhibitor dose, read-out: CR50 ABCB1.
Description: Cells (ABCB1, Jurkat-DNR or ABCG2 Ig-MXP3) are incubated with the test compound (3 order of magnitude concentration range) over a 3-day and 7-day period in the presence of the inhibitor and chemotherapeutic (ABCB1, DNR or ABCG2 MTX), such that a cell concentration of at least 1×10^5 cells/mL is maintained. Cell viability is determined by trypan blue staining and enumeration under light microscopy. […] A chemoreversal index (Chemoreversal 50, CR50) is determined from the viability assessment. Using a similar approach, a direct cytotoxicity index (Toxic Dose 50, TD50) is determined by assessment of cell death of cells grown in media alone.
Cells (ABCB1, Jurkat-DNR or ABCG2 Ig-MXP3) were incubated with the test compound in a 3 order of magnitude concentration range over three and seven day periods in the presence of the inhibitor and chemotherapeutic (ABCB1, 100 nM DNR or ABCG2 30 nM MTX), such that a cell concentration of at least 1×10^5 cells mL^−1 was maintained. Cell viability was determined by trypan blue staining and enumeration under light microscopy. […] A chemoreversal index (Chemoreversal 50, CR50) was determined from the viability assessment. Using a similar approach, a direct cytotoxicity index (Toxic Dose 50, TD50) was determined by assessment of cell death of cells grown in media alone.

For `O=C(c1ccoc1)N1CCN(c2cc(-c3ccco3)nc3cc(-c4ccccc4)nn23)CC1` [Compound 1, (4-(5-(furan-2-yl)-2-phenylpyrazolo[1,5-a]pyrimidin-7-yl)piperazin-1-yl)(furan-3-yl)methanone], the figures for the EC50 (on ABCG2; in data set [4]) were 130 nM and 550 nM, respectively. This compound came in with an IC50 against ABCG2 of 130 ± 300 nM. In addition, the “fold higher potency in ABCG2 than the prior art Ko143” value on ABCG2 (JC-1 efflux reporter system) is on record as “approximately 100 fold”. The “~Fold G2 Selective (B1/G2)” value on ABCG2 (quotient of average ABCB1 IC50 and average ABCG2 IC50, efflux assay) is given as 35.8 fold. On ABCB1 / ABCG2, the selectivity ratio at 30 min is 36. Besides, in data set [1], the solubility worked out at 0.51 µg/mL (≈ 1.16 µM). The solubility (kinetic) was 2 µg/mL (≈ 4.55 µM) in data set [2] (PBS with 1% DMSO, pH 7.4, aqueous buffer, PBS alone, 1% DMSO, read-out: kinetic solubility); at least 6 µg/mL in data set [2] (growth media (RPMI with 10% FBS, 1% DMSO), plasma or biological fluid, read-out: kinetic solubility, no precipitate forming at); at least 3 µg/mL in data set [2] (primary assay screening buffer (6.7% FBS in PBS, 1% DMSO), plasma or biological fluid, read-out: kinetic solubility, no particulate noted at). Further, the “Aqueous stability, percent of compound remaining after 48 hours” value in data set [3] (PBS alone, 23° C., DMSO below 0.1%) is listed as 10%. For the same compound, the “Aqueous stability, percent remaining after 48 hours” value in data set [3] (PBS with acetonitrile (50% v/v final)) was found to be 100%.

Usually IC50 stands for the midpoint of a concentration-inhibition curve. Low readings indicate greater potency in that assay, high ones weaker potency in that assay. The term solubility denotes the dissolved amount per volume that the medium holds. In general, solubility (kinetic) refers to solubility judged after dilution from a stock solution rather than from solid.
